Non-standard residues stand in square brackets, D forms with d. Residues, ends and D or L forms follow the SMILES beside them. *: point of attachment. Decanoyl = CCCCCCCCCC(=O)*
Test system: S. aureus JAR
Assay type: cell-based
Conditions: for LC99.9 (μM) (50% plasma) / LC99.9 (μM) (PBS): JAR, 2 h
Procedure: S. aureus JAR is described in Campoccia et al. (Int. J. Artif. Organs, 2008 September; 31(9):841-7).
For the in vitro killing assay with P10 variants, S. aureus JAR ([…] CFU/ml) were incubated for 2 hours at 37° C. with various concentrations of the peptides in PBS or in PBS/human plasma (1/1, v/v). […] The LC99.9 is the average value of two independent experiments.

| Compound | LC99.9 (μM) (50% plasma) | LC99.9 (μM) (PBS) | antimicrobial activity, in words (statements referring to Tables 2-6) |
| --- | --- | --- | --- |
| CC[C@@H](C)[C@@H](NC(=O)[C@@H](CCCCN)NC(=O)[C@@H](CCCCN)NC(=O)[C@@H](Cc1ccc(O)cc1)NC(=O)[C@@H](CCC(=O)O)NC(=O)[C@@H](CCCNC(=N)N)NC(=O)[C@@H](C)NC(=O)[C@@H](CC(C)C)NC(C)=O)C(=O)N[C@@H](C(=O)N[C@H](CCC(=O)O)C(=O)N[C@H](CCCCN)C(=O)N[C@H](CC(C)C)C(=O)N[C@H](CCCCN)C(=O)N[C@H](CCCNC(=N)N)C(=O)N[C@H](Cc1c[nH]c2ccccc12)C(=O)N[C@H](CC(C)C)C(=O)N[C@H](CCCNC(=N)N)C(=O)N[C@H](CCC(N)=O)C(=O)N[C@@H](C(=O)N[C@H](CC(C)C)C(=O)N[C@H](CCCNC(=N)N)C(=O)N[C@@H](C(=O)N[C@H](CC(C)C)C(=O)N[C@H](CCCNC(=N)N)C(N)=O)[C@H](C)O)C(C)C)C(C)C [Peptide 1313-07, JlareykkiveklkrwlrqvlrtlrB] (Ac-[dL][dA][dR][dE][dY][dK][dK][dI][dV][dE][dK][dL][dK][dR][dW][dL][dR][dQ][dV][dL][dR][dT][dL][dR]-NH2) | 25.6 µM | 1.6 µM | possesses antimicrobial activity |
| Ac-LAREYKKIVEKLKRWLRQVIRTLR-NH2 [Peptide 1302-47, JLAREYKKIVEKLKRWLRQVIRTLRB] | 76.8 µM | 1.6 µM | – |
| CC[C@H](C)[C@H](NC(=O)[C@@H](CCCCN)NC(=O)[C@H](CCCCN)NC(=O)[C@H](Cc1ccc(O)cc1)NC(=O)[C@H](CCC(=O)O)NC(=O)[C@H](CCCNC(=N)N)NC(=O)[C@H](C)NC(=O)[C@H](CC(C)C)NC(C)=O)C(=O)N[C@H](C(=O)N[C@@H](CCC(=O)O)C(=O)N[C@@H](CCCCN)C(=O)N[C@@H](CC(C)C)C(=O)N[C@@H](CCCCN)C(=O)N[C@@H](CCCNC(=N)N)C(=O)N[C@@H](Cc1c[nH]c2ccccc12)C(=O)N[C@@H](CC(C)C)C(=O)N[C@@H](CCCNC(=N)N)C(=O)N[C@@H](CCC(N)=O)C(=O)N[C@H](C(=O)N[C@@H](CC(C)C)C(=O)N[C@@H](CCCNC(=N)N)C(=O)N[C@H](C(=O)N[C@@H](CC(C)C)C(=O)N[C@@H](CCCNC(=N)N)C(N)=O)[C@@H](C)O)C(C)C)C(C)C [Peptide 1301-7, JLAREYKkIVEKLKRWLRQVLRTLRB] (Ac-LAREYK[dK]IVEKLKRWLRQVLRTLR-NH2) | 25.6 µM | 0.6 µM | – |
| Ac-LAREYKKIVEKLKRWLRQVLRT-NH2 [Peptide 1302-57, JLAREYKKIVEKLKRWLRQVLRTB] | 51.2 µM | 1.6 µM | – |
| Ac-LAREYKPIVEKLKRWPRQVLRTLR-NH2 [Peptide 1302-13, JLAREYKPIVEKLKRWPRQVLRTLRB] | >102.4 µM | >3.2 µM | – |
| Ac-AAREYKKIVEKLKRWLRQVLRTLR-NH2 [Peptide 1302-19, JAAREYKKIVEKLKRWLRQVLRTLRB] | 76.8 µM | 1.6 µM | – |
| CC[C@H](C)[C@H](NC(=O)[C@H](CCCCN)NC(=O)[C@H](CCCCN)NC(=O)[C@H](Cc1ccc(O)cc1)NC(=O)[C@H](CCC(=O)O)NC(=O)[C@H](CCCNC(=N)N)NC(=O)[C@H](C)NC(=O)[C@@H](CC(C)C)NC(C)=O)C(=O)N[C@H](C(=O)N[C@@H](CCC(=O)O)C(=O)N[C@@H](CCCCN)C(=O)N[C@@H](CC(C)C)C(=O)N[C@@H](CCCCN)C(=O)N[C@@H](CCCNC(=N)N)C(=O)N[C@@H](Cc1c[nH]c2ccccc12)C(=O)N[C@@H](CC(C)C)C(=O)N[C@@H](CCCNC(=N)N)C(=O)N[C@@H](CCC(N)=O)C(=O)N[C@H](C(=O)N[C@@H](CC(C)C)C(=O)N[C@@H](CCCNC(=N)N)C(=O)N[C@H](C(=O)N[C@@H](CC(C)C)C(=O)N[C@@H](CCCNC(=N)N)C(N)=O)[C@@H](C)O)C(C)C)C(C)C [Peptide 1301-1, JlAREYKKIVEKLKRWLRQVLRTLRB] (Ac-[dL]AREYKKIVEKLKRWLRQVLRTLR-NH2) | 38.4 µM | 0.6 µM | – |
| CC[C@H](C)[C@H](NC(=O)[C@H](CCCCN)NC(=O)[C@H](CCCCN)NC(=O)[C@H](Cc1ccc(O)cc1)NC(=O)[C@H](CCC(=O)O)NC(=O)[C@H](CCCNC(=N)N)NC(=O)[C@H](C)NC(=O)[C@H](CC(C)C)NC(C)=O)C(=O)N[C@H](C(=O)N[C@@H](CCC(=O)O)C(=O)N[C@@H](CCCCN)C(=O)N[C@@H](CC(C)C)C(=O)N[C@@H](CCCCN)C(=O)N[C@@H](CCCNC(=N)N)C(=O)N[C@@H](Cc1c[nH]c2ccccc12)C(=O)N[C@@H](CC(C)C)C(=O)N[C@H](CCCNC(=N)N)C(=O)N[C@@H](CCC(N)=O)C(=O)N[C@H](C(=O)N[C@@H](CC(C)C)C(=O)N[C@@H](CCCNC(=N)N)C(=O)N[C@H](C(=O)N[C@@H](CC(C)C)C(=O)N[C@@H](CCCNC(=N)N)C(N)=O)[C@@H](C)O)C(C)C)C(C)C [Peptide 1301-17, JLAREYKKIVEKLKRWLrQVLRTLRB] (Ac-LAREYKKIVEKLKRWL[dR]QVLRTLR-NH2) | 38.4 µM | 0.6 µM | – |
| Ac-LAREYKKIVEKLKRWLRQVLRQLR-NH2 [Peptide 1302-52, JLAREYKKIVEKLKRWLRQVLRQLRB] | 76.8 µM | 1.6 µM | – |
| Ac-LAREYKKIVPKLKRWLRQVPRTLR-NH2 [Peptide 1302-15, JLAREYKKIVPKLKRWLRQVPRTLRB] | 76.8 µM | >3.2 µM | – |
| Ac-LAREYKKIVEKLKRWLRAVLRTLR-NH2 [Peptide 1302-43, JLAREYKKIVEKLKRWLRAVLRTLRB] | 102.4 µM | 1.6 µM | – |
| CC[C@H](C)[C@H](NC(=O)[C@H](CCCCN)NC(=O)[C@@H](CCCCN)NC(=O)[C@H](Cc1ccc(O)cc1)NC(=O)[C@H](CCC(=O)O)NC(=O)[C@H](CCCNC(=N)N)NC(=O)[C@H](C)NC(=O)[C@H](CC(C)C)NC(C)=O)C(=O)N[C@H](C(=O)N[C@@H](CCC(=O)O)C(=O)N[C@@H](CCCCN)C(=O)N[C@@H](CC(C)C)C(=O)N[C@@H](CCCCN)C(=O)N[C@@H](CCCNC(=N)N)C(=O)N[C@@H](Cc1c[nH]c2ccccc12)C(=O)N[C@@H](CC(C)C)C(=O)N[C@@H](CCCNC(=N)N)C(=O)N[C@@H](CCC(N)=O)C(=O)N[C@H](C(=O)N[C@@H](CC(C)C)C(=O)N[C@@H](CCCNC(=N)N)C(=O)N[C@H](C(=O)N[C@@H](CC(C)C)C(=O)N[C@@H](CCCNC(=N)N)C(N)=O)[C@@H](C)O)C(C)C)C(C)C [Peptide 1301-6, JLAREYkKIVEKLKRWLRQVLRTLRB] (Ac-LAREY[dK]KIVEKLKRWLRQVLRTLR-NH2) | 38.4 µM | 0.6 µM | – |
| Ac-LAREYHKIVEKLKRWLRQVLRTLR-NH2 [Peptide 1302-28, JLAREYHKIVEKLKRWLRQVLRTLRB] | 102.4 µM | 1.2 µM | – |
| CC[C@H](C)[C@H](NC(=O)[C@H](CCCCN)NC(=O)[C@H](CCCCN)NC(=O)[C@H](Cc1ccc(O)cc1)NC(=O)[C@H](CCC(=O)O)NC(=O)[C@H](CCCNC(=N)N)NC(=O)[C@H](C)NC(=O)[C@H](CC(C)C)NC(C)=O)C(=O)N[C@H](C(=O)N[C@@H](CCC(=O)O)C(=O)N[C@@H](CCCCN)C(=O)N[C@H](CC(C)C)C(=O)N[C@@H](CCCCN)C(=O)N[C@@H](CCCNC(=N)N)C(=O)N[C@@H](Cc1c[nH]c2ccccc12)C(=O)N[C@@H](CC(C)C)C(=O)N[C@@H](CCCNC(=N)N)C(=O)N[C@@H](CCC(N)=O)C(=O)N[C@H](C(=O)N[C@@H](CC(C)C)C(=O)N[C@@H](CCCNC(=N)N)C(=O)N[C@H](C(=O)N[C@@H](CC(C)C)C(=O)N[C@@H](CCCNC(=N)N)C(N)=O)[C@@H](C)O)C(C)C)C(C)C [Peptide 1301-12, JLAREYKKIVEKlKRWLRQVLRTLRB] (Ac-LAREYKKIVEK[dL]KRWLRQVLRTLR-NH2) | 32.0 µM | 0.6 µM | – |
| CC[C@H](C)[C@H](NC(=O)[C@H](CCCCN)NC(=O)[C@H](CCCCN)NC(=O)[C@H](Cc1ccc(O)cc1)NC(=O)[C@H](CCC(=O)O)NC(=O)[C@H](CCCNC(=N)N)NC(=O)[C@@H](C)NC(=O)[C@H](CC(C)C)NC(C)=O)C(=O)N[C@H](C(=O)N[C@@H](CCC(=O)O)C(=O)N[C@@H](CCCCN)C(=O)N[C@@H](CC(C)C)C(=O)N[C@@H](CCCCN)C(=O)N[C@@H](CCCNC(=N)N)C(=O)N[C@@H](Cc1c[nH]c2ccccc12)C(=O)N[C@@H](CC(C)C)C(=O)N[C@@H](CCCNC(=N)N)C(=O)N[C@@H](CCC(N)=O)C(=O)N[C@H](C(=O)N[C@@H](CC(C)C)C(=O)N[C@@H](CCCNC(=N)N)C(=O)N[C@H](C(=O)N[C@@H](CC(C)C)C(=O)N[C@@H](CCCNC(=N)N)C(N)=O)[C@@H](C)O)C(C)C)C(C)C [Peptide 1301-2, JLaREYKKIVEKLKRWLRQVLRTLRB] (Ac-L[dA]REYKKIVEKLKRWLRQVLRTLR-NH2) | 38.4 µM | 0.6 µM | – |
| CCCCCCCCCC(=O)N[C@@H](CC(C)C)C(=O)N[C@@H](C)C(=O)N[C@@H](CCCNC(=N)N)C(=O)N[C@@H](CCC(=O)O)C(=O)N[C@@H](Cc1ccc(O)cc1)C(=O)N[C@@H](CCCCN)C(=O)N[C@@H](CCCCN)C(=O)N[C@H](C(=O)N[C@H](C(=O)N[C@@H](CCC(=O)O)C(=O)N[C@@H](CCCCN)C(=O)N[C@@H](CC(C)C)C(=O)N[C@@H](CCCCN)C(=O)N[C@@H](CCCNC(=N)N)C(=O)N[C@@H](Cc1c[nH]c2ccccc12)C(=O)N[C@@H](CC(C)C)C(=O)N[C@@H](CCCNC(=N)N)C(=O)N[C@@H](CCC(N)=O)C(=O)N[C@H](C(=O)N[C@@H](CC(C)C)C(=O)N[C@@H](CCCNC(=N)N)C(=O)N[C@H](C(=O)N[C@@H](CC(C)C)C(=O)N[C@@H](CCCNC(=N)N)C(N)=O)[C@@H](C)O)C(C)C)C(C)C)[C@@H](C)CC [Peptide 1302-9, jLAREYKKIVEKLKRWLRQVLRTLRB] (Decanoyl-LAREYKKIVEKLKRWLRQVLRTLR-NH2) | >102.4 µM | 1.6 µM | – |
| Ac-LAREYKKIVEKIKRWLRQVLRTLR-NH2 [Peptide 1302-33, JLAREYKKIVEKIKRWLRQVLRTLRB] | 102.4 µM | 3.2 µM | – |
| Ac-LAREYKKIVEKLKRWLHQVLRTLR-NH2 [Peptide 1302-41, JLAREYKKIVEKLKRWLHQVLRTLRB] | 102.4 µM | 1.6 µM | – |

From US9562085B2, “Antimicrobial peptide” (priority 2013, dated 2017)
